Results on two molecules are retold here after paper PMC10215404, “Effect of Indole-Containing Pyrazino[2,1-b]quinazoline-3,6-diones in the Virulence of Resistant Bacteria” (Antibiotics, 2023).

The test system of data set [1] is E. coli (ATCC 25922, SA/2, AG100, AG100A). The experiment in a line: MIC determination, broth microdilution. The data set is classed as cell-based. The conditions noted are these: Escherichia coli, ATCC25922. From the text:
(§1) Both reference and resistant strains used in this work were employed by our group for the screening of different families of compounds, such as xanthones and thioxanthones.
Background: Dilution methods test growth across graded concentrations, often in twofold steps.

The test system of a further data set is E. faecalis ATCC 29212. The data set is described as follows: MIC determination, broth microdilution. The format is cell-based. The following applies: Enterococcus faecalis, ATCC29212.
Description: as §1

The subject of another data set is E. faecalis B3/101 (VRE). The data set is described as follows: MIC determination, broth microdilution. The format is cell-based. The following applies: Enterococcus faecalis.
Description: as §1

The test system of a further data set is P. aeruginosa ATCC 27853. The experiment in a line: MIC determination, broth microdilution. The conditions noted are these: Pseudomonas aeruginosa, ATCC27853. The format is cell-based.
Description: as §1

A further data set concerns S. aureus 66/1 (MRSA). The data set is described as follows: MIC determination, broth microdilution. The format is cell-based. The following applies: Staphylococcus aureus.
Description: as §1

Another data set relates to S. aureus ATCC 29213. The data set is described as follows: MIC determination, broth microdilution. The data set is classed as cell-based. The following applies: Staphylococcus aureus, ATCC29213.
Description: as §1

The test system of another data set is S. aureus MRSA 272123. The data set is described as follows: MIC determination, broth microdilution. The format is cell-based. The following applies: Staphylococcus aureus.
Description: as §1

Data set [2] relates to NIH/3T3 mouse fibroblast cell line. The data set is described as follows: Cytotoxicity assay (MTT). The following applies: NIH3T3, 24 h. The format is cell-based. As to the method:
The effects of increasing concentrations of compounds on cell growth were tested in 96-well flat-bottomed microtiter plates. The compounds were diluted in a volume of 100 μL of medium. Afterwards, 1 × 10^4 cells in 100 μL of medium were added to each well, with the exception of the medium control. In the case of NIH/3T3 cells, the compounds were added after seeding the cells at 37 °C overnight. The plates were incubated at 37 °C for 24 h; after the incubation period, 20 μL of MTT solution (from a 5 mg/mL stock) was added to each well. After 4 h of incubation at 37 °C, 100 μL of SDS solution (10% in 0.01 M HCl) was added to each well and the plates were incubated at 37 °C overnight. Cell growth was determined by measuring the optical density (OD) at 540 nm (ref. 630 nm) with a Multiscan EX ELISA reader. Inhibition of cell growth was determined as IC50 values, defined as the inhibitory dose that reduced the growth of the cells exposed to the tested compounds by 50%. IC50 values and the SD of triplicate experiments were calculated by using GraphPad Prism software version 5.00 for Windows with a nonlinear regression curve fit (GraphPad Software, San Diego, CA, USA; www.graphpad.com, accessed on 14 July 2022). Doxorubicin (from a 2 mg/mL stock solution, Teva Pharmaceuticals) was used as the positive control.

The subject of the next data set is H1N1. Further details: method as in PMID 23758051. The conditions noted are these: anti-viral; cited from earlier work.
Another data set deals with Vibrio harveyi. The following applies: aqua-pathogenic Vibrio harveyi; literature, reference not given; cited from earlier work.
A further data set has as its system E. coli AG100. The data set is described as follows: Real-time ethidium bromide accumulation assay (efflux pump inhibition). The conditions noted are these: minute 60.
A further data set has as its system E. coli AG100A. Described as above. The following applies: compound at 100 μM, minute 60.
Another data set deals with S. aureus 272123. The description is as above. The conditions noted are these: minute 60.
The test system of another data set is Staphylococcus aureus. The conditions noted are these: sensitive and methicillin-resistant strains of S. aureus; cited from earlier work.
Another data set deals with Enterococcus faecalis. The conditions noted are these: sensitive and vancomycin-resistant strains of E. faecalis; cited from earlier work.
Data set [3] has as its system human brain endothelial cell line (hCMEC/D3). Also noted: method as in PMID 27268269. The conditions noted are these: cited from earlier work.

≈ marks a conversion by molar mass, not a printed value.

What is called MIC is the least concentration at which growth counts as inhibited. Broadly, the IC50 is the point on the concentration scale where inhibition reaches its midpoint. With `O=C1NCc2nc3ccccc3c(=O)n2[C@@H]1Cc1c[nH]c2ccccc12` [Compound 1, (R)-4-((1H-indol-3-yl)methyl)-1,2-dihydro-6H-pyrazino[2,1-b]quinazoline-3,6(4H)-dione], the MIC (in data set [1]; against E. faecalis ATCC 29212; against E. faecalis B3/101 (VRE); with P. aeruginosa ATCC 27853; in the data set on S. aureus 66/1 (MRSA); in the data set with S. aureus ATCC 29213) was greater than 100 µM each time. The MIC is greater than 100 µM in the data set with S. aureus MRSA 272123 and 32 µg/mL (≈ 92.9 µM) with Vibrio harveyi. In addition, the half-maximal inhibitory concentration (IC50) in data set [2] was greater than 100 µM; in the data set on H1N1, 100 to 150 µM. For the same molecule, the “RFI ± SD” value in the data set on E. coli AG100 (compound at 50 μM) is on record as −0.24 ± 0.05; in the data set on E. coli AG100 (compound at 100 μM), −0.04 ± 0.10; with E. coli AG100A, 0.12 ± 0.01; in the data set with S. aureus 272123 (compound at 50 μM) it was 0.23 ± 0.02; in the data set on S. aureus 272123 (compound at 100 μM) it was −0.01 ± 0.04.

Turning to `CC(C)[C@@H]1NC(=O)[C@@H](C[C@]2(O)c3ccccc3N3C(=O)[C@@H](C)N[C@H]32)n2c1nc1ccccc1c2=O` [Compound 3, Neofiscalin A], the MIC with Staphylococcus aureus and in the data set with Enterococcus faecalis was 8 µg/mL (≈ 16.9 µM) throughout. Besides, the “cytotoxicity (in words)” value in data set [3] is recorded as “no cytotoxicity”.
